Data published in patent US20040234981A1, “Method of determining dna base sequence” (priority 2001, published 2004).
Several values for one entry are separate records, joined by “and”; a condition that tells them apart may be missing. Identical values can stand only once.

Columns and labels:
Assay type in all cases: biochemical
[1] = test system: 3′-dATP; assay: Test (2): 3′-dATP added during in vitro transcription with Biotin-labeled CTP, chemoluminescent signal detection; settings: 3′-dATP concentration 0.00125 mM, wild form taken as 1, average of three runs
Experimental: (§1) The ability to incorporate 3′-dATP of the Δ type enzyme of purified T7 RNA polymerase was compared to that of the wild type and F644Y mutation.
In this method, 3′-dATP was added during an in vitro transcription reaction and the synthesis level was determined by comparison with synthesis impairment. This will be described in greater detail. The template employed was pBluescriptII (Stratagene) pretreated with the restriction enzyme ScaI (made by Nippon Gene). The reaction conditions were: 40 mM Tris-HCl, pH 8.0, 25 mM NaCl, 8 mM MgCl2, 2 mM spermidine-(HCl)3, and 5 mM DTT. The concentration of ribonucleotides rATP, rCTP, rGTP, and rUTP was 0.5 mM. A 0.1 mM quantity of Biotin-labeled CTP was added and 3′-dATP was added in ranges of 0.00125 mM, 0.0025 mM, and 0.005 mM. A 25 U quantity of enzymes purified as set forth above were added to 10 μL of this solution and the reaction was conducted for 60 min at 37° C. At the conclusion of the reaction, 1 μL of 10× gel loading buffer (1 mM EDTA, 1% SDS, 50% glycerol, and 0.05% BPB) was added. The entire solution was then subjected to electrophoresis in a 1% modified formamide gel. At the conclusion of electrophoresis, northern hybridization was conducted, the synthesized product was transcribed onto a nylon membrane, and signal detection was conducted based on a chemoluminescent substrate according to a protocol of anti-SA-AP antibody (made by Oriental Yeast Co., diluted 20,000-fold) and CDP-Star™ (made by Roche Co.). A Fluoro S Multiimager (BioRad Co.) and Multianalyst, an attached image analyzing software package, were then employed to determine the level of the signal detected.

[2] = test system: 3′-dATP; assay: Test (1): 3′-dATP added during in vitro transcription, amount of RNA synthesized (SYBER Green II gel image); settings: 3′-dATP concentration 0.024 mM, wild form of T7 RNA polymerase taken as 1, inverse of RNA synthesis level
Experimental: as §1
In this method, 3′-dATP was added during an in vitro transcription reaction and the synthesis level was determined by comparison with synthesis impairment. This will be described in greater detail. The template employed was pBluescriptII (Stratagene) pretreated with the restriction enzyme ScaI (made by Nippon Gene). The reaction conditions were: 40 mM Tris-HCl, pH 8.0, 25 mM NaCl, 8 mM MgCl2, 2 mM spermidine-(HCl)3, and 5 mM DTT. The concentration of nucleotides ATP, CTP, GTP, and UTP was 0.5 mM. Of these, ATP was replaced with 3′-dATP (Sigma) in ranges of 0.006 mM, 0.008 mM, 0.012 mM, and 0.024 mM. The above purified enzymes were added to 20 μL of this solution and the reaction was conducted for 30 to 60 min at 37° C. At the conclusion of the reaction, 4 μL of 5× gel loading buffer was added (15% Ficoll, 0.1% BPB, 0.1% XC, 0.5% SDS, and 0.1 M EDTA). The entire solution was then subjected to electrophoresis in a 1% modified agarose gel containing formaldehyde. At the conclusion of electrophoresis, 10,000-fold dilution was conducted with SYBER Green II (made by Molecular Probe Co.) and dying was conducted for 20 to 40 min according to a protocol of addition to the product. A Fluoro S Multiimager (BiORad Co.) was then employed to irradiate ultraviolet radiation and pick up the fluorescent image. Multianalyst, an attached image analyzing software package, was used to determine the amount of RNA that had been synthesized from the image picked up. The various values of the results were compared. An increase in ability to incorporate 3′-dATP should result in a drop in the synthesis level. Accordingly, a comparison was made with a control, and the inverse thereof was employed as indicator of how readily 3′-dATP was incorporated.

[3] = test system: fluorescent-labeled 3′-deoxynucleotide; assay: Ability to incorporate fluorescent-labeled 3′-deoxynucleotide, fluorescent signal intensity on ABI 377 XL Sequencer
Experimental: A comparison was conducted of the ability to incorporate florescent-labeled 3′-deoxynucleotide of Δ-type enzyme of purified T7 RNA polymerase.
This method was conducted in accordance with the method of Sasaki et al. (Sasaki, N., et al. Gene, 222(1): 17-24 (1998)). In greater detail, pBluescriptII DNA was employed as template. A solution obtained by mixing Bodipy(R6G)-3′dATP, Bodipy(FL)-3′dGTP, Bodipy(581/591)-3′dCTP, Bodipy(564/570)-3′dUTP, ATP, GTP, CTP, and UTP in prescribed proportions was employed to conduct reactions differing only with regard to the T7 RNA polymerase employed. The enzymes employed were 100 units of T7 RNA polymerase (wild type) and T7 RNA polymerase F644Y; and 50 units of T7 RNA polymerase F644Y/Δ1. The reaction product was subjected to electrophoresis with an ABI 377 XL Sequencer. The average value of the fluorescent signal intensity was compared for each nucleotide.
Column (2) is a conversion of the value of (1) per unit of enzyme. Numbers shown in parentheses denote values relative to a value of “1” for the signal intensity of wild enzyme. […] Since the ABI 377 XL Sequencer is not a device for quantitative analysis, and operations is conducted on an extremely small amount of samples, large errors are to be expected.

[4] = relative to a value of 1 for the signal intensity of wild enzyme

Molecule: T7 RNA polymerase (wild type): wild RNA polymerase derived from T7 phage
- Relative ability to incorporate 3′-dATP [1]: 1.00
- Relative ability to incorporate 3′-dATP [2]: 1.00
- (1) Average signal intensity U ([3]; Bodipy(564/570)-3′dUTP, 100 units of enzyme (50 units for F644Y/Δ1)): 120
- (1) Average signal intensity C ([3]; Bodipy(581/591)-3′dCTP, 100 units of enzyme (50 units for F644Y/Δ1)): 146
- (1) Average signal intensity G ([3]; Bodipy(FL)-3′dGTP, 100 units of enzyme (50 units for F644Y/Δ1)): 220
- (1) Average signal intensity A ([3]; Bodipy(R6G)-3′dATP, 100 units of enzyme (50 units for F644Y/Δ1)): 67
- (2) Signal intensity per unit of enzyme G ([3]; conversion of (1) per unit of enzyme): 2.2
- Signal intensity per unit of enzyme A, value in parentheses relative to wild enzyme [3, 4]: (1.0)
- Signal intensity per unit of enzyme C, value in parentheses relative to wild enzyme [3, 4]: (1.0)
- Signal intensity per unit of enzyme G, value in parentheses relative to wild enzyme [3, 4]: (1.0)
- Signal intensity per unit of enzyme U, value in parentheses relative to wild enzyme [3, 4]: (1.0)

B1: T7 RNA polymerase F644Y/Δ3: T7 RNA polymerase F644Y with Δ3 deficiency (DEL 178-180) (protein, UniProt P00573 1-883, looked up, variant F644Y del178-180)
T7 RNA polymerase: MNTINIAKNDFSDIELAAIPFNTLADHYGERLAREQLALEHESYEMGEARFRKMFERQLKAGEVADNAAAKPLITTLLPKMIARINDWFEEVKAKRGKRPTAFQFLQEIKPEAVAYITIKTTLACLTSADNTTVQAVASAIGRAIEDEARFGRIRDLEAKHFKKNVEEQLNKRVGHVAFMQVVEADMLSKGLLGGEAWSSWHKEDSIHVGVRCIEMLIESTGMVSLHRQNAGVVGQDSETIELAPEYAEAIATRAGALAGISPMFQPCVVPPKPWTGITGGGYWANGRRPLALVRTHSKKALMRYEDVYMPEVYKAINIAQNTAWKINKKVLAVANVITKWKHCPVEDIPAIEREELPMKPEDIDMNPEALTAWKRAAAAVYRKDKARKSRRISLEFMLEQANKFANHKAIWFPYNMDWRGRVYAVSMFNPQGNDMTKGLLTLAKGKPIGKEGYYWLKIHGANCAGVDKVPFPERIKFIEENHENIMACAKSPLENTWWAEQDSPFCFLAFCFEYAGVQHHGLSYNCSLPLAFDGSCSGIQHFSAMLRDEVGGRAVNLLPSETVQDIYGIVAKKVNEILQADAINGTDNEVVTVTDENTGEISEKVKLGTKALAGQWLAYGVTRSVTKRSVMTLAYGSKEYGFRQQVLEDTIQPAIDSGKGLMFTQPNQAAGYMAKLIWESVSVTVVAAVEAMNWLKSAAKLLAAEVKDKKTGEILRKRCAVHWVTPDGFPVWQEYKKPIQTRLNLMFLGQFRLQPTINTNKDSEIDAHKQESGIAPNFVHSQDGSHLRKTVVWAHEKYGIESFALIHDSFGTIPADAANLFKAVRETMVDTYESCDVLADFYDQFADQLHESQLDKMPALPAKGNLNLRDILESDFAFA
- Relative ability to incorporate 3′-dATP ([1]; listed as F644Y/Δ3): 2.00±0.3 and 2.00
- Relative ability to incorporate 3′-dATP ([1]; listed as T7 RNA polymerase F644Y/Δ 3): 2.00 ± 0.3

B2: T7 RNA polymerase F644Y/Δ2: T7 RNA polymerase F644Y deficient in amino acids 172 and 173 and 178 through 180; plasmid pT7RF644Y/Δ2 (protein, UniProt P00573 1-883, looked up, variant F644Y del172-173 del178-180)
T7 RNA polymerase: MNTINIAKNDFSDIELAAIPFNTLADHYGERLAREQLALEHESYEMGEARFRKMFERQLKAGEVADNAAAKPLITTLLPKMIARINDWFEEVKAKRGKRPTAFQFLQEIKPEAVAYITIKTTLACLTSADNTTVQAVASAIGRAIEDEARFGRIRDLEAKHFKKNVEEQLNVGHVAFMQVVEADMLSKGLLGGEAWSSWHKEDSIHVGVRCIEMLIESTGMVSLHRQNAGVVGQDSETIELAPEYAEAIATRAGALAGISPMFQPCVVPPKPWTGITGGGYWANGRRPLALVRTHSKKALMRYEDVYMPEVYKAINIAQNTAWKINKKVLAVANVITKWKHCPVEDIPAIEREELPMKPEDIDMNPEALTAWKRAAAAVYRKDKARKSRRISLEFMLEQANKFANHKAIWFPYNMDWRGRVYAVSMFNPQGNDMTKGLLTLAKGKPIGKEGYYWLKIHGANCAGVDKVPFPERIKFIEENHENIMACAKSPLENTWWAEQDSPFCFLAFCFEYAGVQHHGLSYNCSLPLAFDGSCSGIQHFSAMLRDEVGGRAVNLLPSETVQDIYGIVAKKVNEILQADAINGTDNEVVTVTDENTGEISEKVKLGTKALAGQWLAYGVTRSVTKRSVMTLAYGSKEYGFRQQVLEDTIQPAIDSGKGLMFTQPNQAAGYMAKLIWESVSVTVVAAVEAMNWLKSAAKLLAAEVKDKKTGEILRKRCAVHWVTPDGFPVWQEYKKPIQTRLNLMFLGQFRLQPTINTNKDSEIDAHKQESGIAPNFVHSQDGSHLRKTVVWAHEKYGIESFALIHDSFGTIPADAANLFKAVRETMVDTYESCDVLADFYDQFADQLHESQLDKMPALPAKGNLNLRDILESDFAFA
- Relative ability to incorporate 3′-dATP [2]: almost the same results
